The source of these data is PubChem BioAssay (NCI).

Values joined by “and” are separate entries in the source; they are usually repeats but may differ in a detail not shown here. Equal values may be shown once.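 Cultured in 96-well plates, cells were exposed to test compound for 48 hours across five concentrations. The concentration for 50% growth inhibition is given as GI50. TGI denotes the concentration required for complete inhibition of growth.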

Some test systems named below: CCRF-CEM leukemia; DU-145 prostate; MDA-MB-435; NCI-H226 lung; NCI/ADR-RES ovarian; OVCAR-5 ovarian; SNB-75 CNS; SW-620 colon; T-47D breast; UO-31 renal.
What all share (experiment): NCI-60 cell line screen, 48 h

Regarding `Cn1c2ccccc2c2nnc(N/N=C/c3ccccn3)nc21`, the GI50 in the experiment on CCRF-CEM leukemia was 301 nM; with DU-145 prostate it was 377 nM; in the experiment with MDA-MB-435, 459 nM; in the experiment with NCI-H226 lung, 337 nM; in the experiment with NCI/ADR-RES ovarian, 0.336 µM; in the experiment on OVCAR-5 ovarian it was 1.27 µM. The GI50 in the experiment on SNB-75 CNS is 1090 nM; in the experiment with SW-620 colon, 509 nM; in the experiment on T-47D breast, 392 nM; in the experiment on UO-31 renal, 361 nM. Also, the TGI in the experiment with CCRF-CEM leukemia is more than 33.1 µM; in the experiment on DU-145 prostate, more than 27.3 µM; in the experiment with MDA-MB-435, more than 54.6 µM; in the experiment on NCI-H226 lung, 5.36 µM; with NCI/ADR-RES ovarian it was 8.89 µM; in the experiment on OVCAR-5 ovarian, more than 72.4 µM. Moreover, the TGI in the experiment on SNB-75 CNS is 6.78 µM; in the experiment with SW-620 colon, more than 82.1 µM; in the experiment on T-47D breast, 10.8 µM; with UO-31 renal, 5.3 µM.
With `CCS(=O)(=O)c1ccc(OC)c(Nc2nccc(N(C)c3ccc4c(C)[nH]nc4c3)n2)c1`, the GI50 was 8150 nM in the experiment with CCRF-CEM leukemia; 8450 nM in the experiment with DU-145 prostate; 5340 nM in the experiment with MDA-MB-435; 1850 nM in the experiment on NCI-H226 lung; 6.32 µM with NCI/ADR-RES ovarian; 5.75 µM in the experiment on OVCAR-5 ovarian. Further, the GI50 in the experiment with SNB-75 CNS was 2940 nM; in the experiment on SW-620 colon it was 7850 nM; in the experiment on T-47D breast, 4770 nM; with UO-31 renal, 2050 nM. For the same compound, the TGI with CCRF-CEM leukemia is more than 25 µM; in the experiment on DU-145 prostate it was more than 25 µM; in the experiment with MDA-MB-435, 13.5 µM; in the experiment with NCI-H226 lung, more than 21.1 µM; in the experiment on NCI/ADR-RES ovarian it was more than 19.4 µM; with OVCAR-5 ovarian, more than 22.7 µM. In addition, the TGI in the experiment on SNB-75 CNS is 8.38 µM; in the experiment with SW-620 colon, more than 25 µM; with T-47D breast, 21.9 µM; with UO-31 renal, 10.9 µM.
As to `CCN(CC)CCCC(C)Nc1cnc(C(=O)Nc2cc(F)cc3cccnc23)cn1` (stereo not given), the GI50 in the experiment on CCRF-CEM leukemia was 2550 nM and 478 nM; in the experiment on DU-145 prostate it was 10500 nM and 1480 nM; in the experiment on MDA-MB-435 it was 3400 nM and 1450 nM; with NCI-H226 lung, 4710 nM and 1990 nM; in the experiment on NCI/ADR-RES ovarian it was 7.27 µM and 2.6 µM; with OVCAR-5 ovarian it was 11 µM and 1.41 µM. In addition, the GI50 is 4490 nM and 1450 nM in the experiment on SNB-75 CNS; 4030 nM and 814 nM with SW-620 colon; 759 nM and 505 nM in the experiment on T-47D breast; 4120 nM and 933 nM in the experiment with UO-31 renal. Also, the TGI with CCRF-CEM leukemia was 10.6 µM; in the experiment with DU-145 prostate, 23.1 µM and 2.84 µM; with MDA-MB-435, 12.8 µM and 3.43 µM; in the experiment with NCI-H226 lung, 18.5 µM and 4.13 µM; in the experiment on NCI/ADR-RES ovarian, 21.6 µM and 11.2 µM; in the experiment with OVCAR-5 ovarian it was 23.1 µM and 2.91 µM. The TGI in the experiment with SNB-75 CNS was 20.1 µM and 2.79 µM; in the experiment with SW-620 colon, 15 µM and 2.62 µM; in the experiment with T-47D breast it was 20.2 µM and 5.18 µM; in the experiment on UO-31 renal, 17.1 µM and 2.23 µM.
Turning to `COc1ccc(C2=C(c3cn(C)c4ccccc34)C(=O)NC2=O)cc1OC`, the GI50 with CCRF-CEM leukemia was 6380 nM; in the experiment with DU-145 prostate, more than 19400 nM; in the experiment with MDA-MB-435, 1100 nM; with NCI-H226 lung, 10800 nM; with NCI/ADR-RES ovarian, 7.99 µM; in the experiment with OVCAR-5 ovarian, more than 25 µM. The GI50 was 743 nM with SNB-75 CNS, 6960 nM in the experiment with SW-620 colon, 7210 nM in the experiment with T-47D breast and 4830 nM in the experiment on UO-31 renal. The TGI in the experiment with CCRF-CEM leukemia, in the experiment with DU-145 prostate, with MDA-MB-435, in the experiment on NCI-H226 lung, in the experiment on NCI/ADR-RES ovarian and in the experiment with OVCAR-5 ovarian was more than 25 µM in each case. Further, the TGI in the experiment with SNB-75 CNS is 7.08 µM; in the experiment on SW-620 colon it was more than 25 µM; with T-47D breast, more than 25 µM; in the experiment with UO-31 renal it was more than 25 µM.
`CN1CCN(Cc2ccc(NC(=O)c3[nH]ncc3Nc3ncnc4c3CCC4)cc2)CC1`: the GI50 in the experiment with CCRF-CEM leukemia was 611 nM; in the experiment with DU-145 prostate it was 1640 nM; in the experiment with MDA-MB-435 it was 1800 nM; with NCI-H226 lung, 755 nM; with NCI/ADR-RES ovarian, 6.17 µM; in the experiment with OVCAR-5 ovarian, 3.59 µM. In addition, the GI50 with SNB-75 CNS is 34.1 nM; in the experiment on SW-620 colon it was 836 nM; in the experiment on T-47D breast it was 3720 nM; in the experiment on UO-31 renal, 1500 nM. In addition, the TGI in the experiment on CCRF-CEM leukemia amounted to 11 µM; in the experiment on DU-145 prostate it was 10.7 µM; with MDA-MB-435 it was 12.3 µM; with NCI-H226 lung, 13 µM; in the experiment on NCI/ADR-RES ovarian it was 45.1 µM; in the experiment on OVCAR-5 ovarian it was 16.2 µM. In addition, the TGI with SNB-75 CNS turned out to be 3.2 µM; in the experiment with SW-620 colon, 10.3 µM; in the experiment on T-47D breast, 22.7 µM; in the experiment on UO-31 renal, 7.61 µM.
As to `CN(C)CC#Cc1cccc(C(=O)c2cnn(-c3ccc(F)cc3)c2N)c1`, the GI50 is more than 25000 nM in the experiment on CCRF-CEM leukemia; more than 25000 nM with DU-145 prostate; 11900 nM in the experiment with MDA-MB-435; more than 21900 nM in the experiment with NCI-H226 lung; more than 25 µM in the experiment with NCI/ADR-RES ovarian; more than 25 µM in the experiment with OVCAR-5 ovarian. Further, the GI50 in the experiment on SNB-75 CNS was 19600 nM; in the experiment with SW-620 colon, more than 25000 nM; in the experiment with T-47D breast it was 11300 nM; in the experiment with UO-31 renal, more than 25000 nM. Besides, the TGI with CCRF-CEM leukemia, in the experiment with DU-145 prostate, in the experiment with MDA-MB-435, with NCI-H226 lung, in the experiment with NCI/ADR-RES ovarian and in the experiment with OVCAR-5 ovarian was more than 25 µM each time. In addition, the TGI in the experiment with SNB-75 CNS, in the experiment with SW-620 colon, with T-47D breast and in the experiment with UO-31 renal was more than 25 µM in each case.
Regarding `CCOc1cc2ncc(C#N)c(Nc3ccc(F)c(Cl)c3)c2cc1NC(=O)/C=C/CN(C)C`, the GI50 in the experiment on CCRF-CEM leukemia is 1130 nM; in the experiment on DU-145 prostate it was 50 nM; in the experiment with MDA-MB-435, 323 nM; in the experiment on NCI-H226 lung it was 584 nM; with NCI/ADR-RES ovarian it was 0.679 µM; with OVCAR-5 ovarian it was 0.344 µM. For the same compound, the GI50 in the experiment with SNB-75 CNS is 228 nM; in the experiment with SW-620 colon, 485 nM; with T-47D breast, 108 nM; in the experiment on UO-31 renal, 46 nM. The TGI with CCRF-CEM leukemia was more than 7.16 µM; in the experiment on DU-145 prostate, 1.62 µM; in the experiment on MDA-MB-435 it was 1.42 µM; in the experiment on NCI-H226 lung, more than 5.01 µM; in the experiment with NCI/ADR-RES ovarian, more than 10 µM; with OVCAR-5 ovarian it was more than 5.93 µM. The TGI is more than 3.71 µM in the experiment with SNB-75 CNS, 3.23 µM in the experiment with SW-620 colon, more than 3.37 µM in the experiment on T-47D breast and more than 3.46 µM in the experiment on UO-31 renal.
Take `CCc1oc2ccccc2c1C(=O)c1cc(Br)c(O)c(Br)c1`: the TGI with CCRF-CEM leukemia is 55.4 µM; in the experiment with DU-145 prostate it was more than 100 µM; with MDA-MB-435, more than 100 µM; with NCI-H226 lung it was 50 µM; in the experiment on NCI/ADR-RES ovarian, 87.2 µM; with OVCAR-5 ovarian, 46.1 µM. In addition, the TGI in the experiment with SNB-75 CNS is 48.6 µM; with SW-620 colon, more than 100 µM; with T-47D breast it was 53.6 µM; with UO-31 renal, 40.1 µM.
